Reference: patent US20240270809A1, “ORAL GLP RECEPTOR AGONISTS” (priority 2020, published 2024)
Positions of bridges follow the written chain, without caps; N, C: chain ends. Non-standard residues stand in square brackets, D forms with d. Residues, ends and D or L forms follow the SMILES beside them. *: point of attachment. Malonyl(2,2-Me2,histaminyl) = CC(C)(C(=O)NCCc1cnc[nH]1)C(=O)*; Ala(1H-tetrazol-5-yl) = N[C@@H](Cc1nnn[nH]1)C(=O)O; αMePhe(2-F) = C[C@](N)(Cc1ccccc1F)C(=O)O; d(αMeF) = C[C@@](N)(Cc1ccccc1)C(=O)O; αMeL = CC(C)C[C@](C)(N)C(=O)O; Nle = CCCC[C@H](N)C(=O)O; Aib = CC(C)(N)C(=O)O

Tests used:
human GLP2 receptor = biological target: T1, human GLP2 receptor (Homo sapiens, UniProt O95838); experiment: cAMP accumulation assay, functional agonism of human GLP2 receptor; assay type: cell-based; details: HEK cells infected with human GLP2 receptor BacMam virus, HTRF cAMP; for Emax: HEK293, read-out: Human GLP-2R agonist cAMP Emax; for EC50: read-out: Human GLP-2R agonist cAMP pEC50 (converted)
T1 construct: expressed in transfected cells; host or cells: HEK cells, BacMam virus transduction
T1 sequence (O95838 1-553): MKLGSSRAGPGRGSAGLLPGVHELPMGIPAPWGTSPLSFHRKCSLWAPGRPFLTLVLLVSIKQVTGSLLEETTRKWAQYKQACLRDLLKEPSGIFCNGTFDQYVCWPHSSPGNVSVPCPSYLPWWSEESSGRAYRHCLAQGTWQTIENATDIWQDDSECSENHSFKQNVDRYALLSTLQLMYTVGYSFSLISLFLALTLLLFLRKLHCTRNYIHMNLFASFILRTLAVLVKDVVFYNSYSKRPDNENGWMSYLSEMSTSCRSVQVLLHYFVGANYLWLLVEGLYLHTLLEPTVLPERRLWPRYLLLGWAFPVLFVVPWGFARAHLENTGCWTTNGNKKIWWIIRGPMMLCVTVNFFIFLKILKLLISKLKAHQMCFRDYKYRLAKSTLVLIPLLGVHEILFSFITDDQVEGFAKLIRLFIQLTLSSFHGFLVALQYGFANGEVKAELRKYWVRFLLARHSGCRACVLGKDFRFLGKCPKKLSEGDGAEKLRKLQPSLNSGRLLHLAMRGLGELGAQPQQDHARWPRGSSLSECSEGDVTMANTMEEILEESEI
Procedure, shortened: (§1)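 Steps: infect HEK cells with human GLP1 or GLP2 receptor BacMam for 24 hours; freeze; resuspend in HBSS with 0.5 mM IBMX; incubate with agonist 45 min at 37° C; lyse with HTRF detection reagents and read cAMP.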

human GLP1 receptor = biological target: T2, human GLP1 receptor (Homo sapiens, UniProt P43220); experiment: cAMP accumulation assay, functional agonism of human GLP1 receptor; assay type: cell-based; details: HEK cells infected with human GLP1 receptor BacMam virus, HTRF cAMP; for Emax: HEK293, read-out: Human GLP-1R agonist cAMP Emax; for EC50: read-out: Human GLP-1R agonist cAMP pEC50 (converted)
T2 construct: expressed in transfected cells; host or cells: HEK cells, BacMam virus transduction
Procedure, shortened: as §1

mouse GLP2 receptor = biological target: T3, mouse GLP2 receptor (Mus musculus, UniProt Q5IXF8); experiment: cAMP accumulation assay, functional agonism of mouse GLP2 receptor; assay type: cell-based; details: HEK cells transiently transfected with mouse GLP2 receptor, HTRF cAMP; for Emax: HEK293, read-out: Mouse GLP-2R agonist cAMP Emax; for EC50: read-out: Mouse GLP-2R agonist cAMP pEC50 (converted)
T3 construct: expressed in transfected cells; host or cells: HEK cells, transient transfection with GeneJuice
T3 sequence (Q5IXF8 1-512): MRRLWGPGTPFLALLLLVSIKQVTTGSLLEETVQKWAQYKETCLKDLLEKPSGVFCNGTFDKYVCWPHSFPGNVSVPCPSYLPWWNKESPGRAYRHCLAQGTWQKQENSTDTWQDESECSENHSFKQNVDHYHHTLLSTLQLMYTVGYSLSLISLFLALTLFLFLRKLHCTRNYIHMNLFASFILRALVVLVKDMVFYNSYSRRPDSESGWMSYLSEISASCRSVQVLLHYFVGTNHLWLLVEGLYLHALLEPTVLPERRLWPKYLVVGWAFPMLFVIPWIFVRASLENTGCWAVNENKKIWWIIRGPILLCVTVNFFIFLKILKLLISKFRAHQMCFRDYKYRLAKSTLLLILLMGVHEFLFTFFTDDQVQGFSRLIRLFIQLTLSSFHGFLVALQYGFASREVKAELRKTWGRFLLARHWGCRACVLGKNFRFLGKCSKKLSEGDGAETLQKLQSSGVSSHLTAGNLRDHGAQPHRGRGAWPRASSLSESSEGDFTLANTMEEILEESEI
Procedure, shortened: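 Transiently transfected HEK cells (24 h, frozen, 8000/well) in HBSS with 0.5 mM IBMX exposed to compound concentration series for 45 min at 37 °C. cAMP measured by HTRF after lysis and 1 h at RT; pEC50 from four-parameter concentration-response fit.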

[1] = Stability of peptides in rat intestinal fluid (ratIF); details: Sprague Dawley, undiluted rat small intestinal fluid (ratIF)
[2] = Stability of peptides in Fasted-State Simulated Intestinal Fluid (FaSSIF); assay type: in vitro ADME; details: FaSSIF with 10 mg/ml pancreatin; FaSSIF pH 6.5 with 10 mg/ml pancreatin, 37° C., t = 15 mins

T2 sequence (P43220 24-463): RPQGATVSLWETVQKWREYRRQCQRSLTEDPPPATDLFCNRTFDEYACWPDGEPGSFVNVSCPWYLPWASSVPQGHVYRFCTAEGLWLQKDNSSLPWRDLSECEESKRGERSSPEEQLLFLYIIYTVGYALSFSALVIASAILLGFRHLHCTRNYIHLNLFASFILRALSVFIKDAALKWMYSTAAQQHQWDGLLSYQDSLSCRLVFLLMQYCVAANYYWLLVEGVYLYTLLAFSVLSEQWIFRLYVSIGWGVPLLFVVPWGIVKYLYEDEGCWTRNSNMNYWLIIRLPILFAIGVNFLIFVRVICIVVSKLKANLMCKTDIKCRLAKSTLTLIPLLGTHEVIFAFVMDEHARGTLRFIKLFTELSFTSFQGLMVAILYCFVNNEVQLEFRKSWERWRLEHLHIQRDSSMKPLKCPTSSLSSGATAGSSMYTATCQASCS

Emax (human GLP2 receptor) [%] | EC50 (human GLP2 receptor) [nM] | Emax (human GLP1 receptor) [%] | EC50 (human GLP1 receptor) [nM] | Emax (mouse GLP2 receptor) [%] | EC50 (mouse GLP2 receptor) [nM] | remaining at 0.5 h [1] [%] | remaining at 0.25 h [2] [%] | remaining at 0.25 h [1] [%] | Compound
103 | 0.0316 | 96.2 | 0.0501 | 100 | 5.01 | 41.3 |  |  | CCCC[C@H](NC(=O)[C@H](CCC(=O)O)NC(=O)[C@@H]1CC(=O)NCCCC[C@H](NC(=O)[C@H](CC(=O)O)NC(=O)C(C)(C)NC(=O)[C@@H](N)Cc2c[nH]cn2)C(=O)N[C@@H](CO)C(=O)N[C@@H](Cc2ccccc2)C(=O)N[C@@H](CO)C(=O)N1)C(=O)N[C@H](Cc1ccccc1)C(=O)N[C@H](C(=O)N[C@@](C)(CC(C)C)C(=O)N[C@@H](CC(C)C)C(=O)N[C@@H](CC(=O)O)C(=O)N[C@H]1CCC(=O)NCCCC[C@@H](C(=O)N[C@@H](CC(=O)O)C(=O)N[C@@H](Cc2ccccc2)C(=O)N[C@H](C(=O)N[C@H]2CCC(=O)NCCCC[C@@H](C(=O)N[C@H](C(=O)N3CCC[C@H]3C(N)=O)[C@@H](C)O)NC(=O)[C@H]([C@@H](C)CC)NC(=O)[C@H](CC(C)C)NC(=O)[C@H](Cc3c[nH]c4ccccc34)NC2=O)[C@@H](C)CC)NC(=O)[C@H](C)NC(=O)[C@H](C)NC(=O)[C@H](CCCCN)NC1=O)[C@@H](C)O [Example 29] (H-H[Aib]DKSFSDE[Nle][dF]T[αMeL]LDEKAAKDFIEWLIKTP-NH2; lactam 4-8, 16-20, 24-28 (inferred); C-terminus assumed)
103 | 0.0398 | 98.3 | 0.0158 | 102 | 0.158 | 24.8 |  |  | CCCC[C@H](NC(=O)[C@H](CCC(=O)O)NC(=O)[C@@H]1CC(=O)NCCCC[C@H](NC(=O)[C@H](CC(=O)O)NC(=O)C(C)(C)NC(=O)[C@@H](N)Cc2c[nH]cn2)C(=O)N[C@@H](CO)C(=O)N[C@@](C)(Cc2ccccc2F)C(=O)N[C@@H](CO)C(=O)N1)C(=O)N[C@H](Cc1ccccc1)C(=O)N[C@H](C(=O)N[C@@](C)(CC(C)C)C(=O)N[C@@H](CC(C)C)C(=O)N[C@@H](CC(=O)O)C(=O)N[C@H]1CCC(=O)NCCCC[C@@H](C(=O)N[C@@H](CC(=O)O)C(=O)N[C@@H](Cc2ccccc2)C(=O)N[C@H](C(=O)N[C@H]2CCC(=O)NCCCC[C@@H](C(=O)N[C@H](C(=O)N[C@@H](CCCCN)C(N)=O)[C@@H](C)O)NC(=O)[C@H]([C@@H](C)CC)NC(=O)[C@H](CC(C)C)NC(=O)[C@H](Cc3c[nH]c4ccccc34)NC2=O)[C@@H](C)CC)NC(=O)[C@H](C)NC(=O)[C@H](C)NC(=O)[C@H](CCCCN)NC1=O)[C@@H](C)O [Example 31] (H-H[Aib]DKS[αMePhe(2-F)]SDE[Nle][dF]T[αMeL]LDEKAAKDFIEWLIKTK-NH2; lactam 4-8, 16-20, 24-28)
104 | 0.0316 | 97.1 | 0.0316 |  |  | 23.3 |  |  | CCCC[C@H](NC(=O)[C@H](CCC(=O)O)NC(=O)[C@@H]1CC(=O)NCCCC[C@H](NC(=O)[C@H](CC(=O)O)NC(=O)C(C)(C)NC(=O)[C@@H](N)Cc2c[nH]cn2)C(=O)N[C@@H](CO)C(=O)N[C@@H](Cc2ccccc2)C(=O)N[C@@H](CO)C(=O)N1)C(=O)N[C@](C)(Cc1ccccc1)C(=O)N[C@H](C(=O)N[C@@](C)(CC(C)C)C(=O)N[C@@H](CC(C)C)C(=O)N[C@@H](CC(=O)O)C(=O)N[C@H]1CCC(=O)NCCCC[C@@H](C(=O)N[C@@H](CC(=O)O)C(=O)N[C@@H](Cc2ccccc2)C(=O)N[C@H](C(=O)N[C@H]2CCC(=O)NCCCC[C@@H](C(=O)N[C@H](C(=O)N[C@@H](CCCCN)C(N)=O)[C@@H](C)O)NC(=O)[C@H]([C@@H](C)CC)NC(=O)[C@H](CC(C)C)NC(=O)[C@H](Cc3c[nH]c4ccccc34)NC2=O)[C@@H](C)CC)NC(=O)[C@H](C)NC(=O)[C@H](C)NC(=O)[C@H](CCCCN)NC1=O)[C@@H](C)O [Example 36] (H-H[Aib]DKSFSDE[Nle][d(αMeF)]T[αMeL]LDEKAAKDFIEWLIKTK-NH2; lactam 4-8, 16-20, 24-28; N-terminus and C-terminus assumed)
103 | 0.0251 | 98.2 | 0.0251 | 89.7 | 2 | 73.8 |  |  | CCCC[C@H](NC(=O)[C@H](CCC(=O)O)NC(=O)[C@@H]1CC(=O)NCCCC[C@H](NC(=O)[C@H](Cc2nn[nH]n2)NC(=O)C(C)(C)C(=O)NCCc2c[nH]cn2)C(=O)N[C@@H](CO)C(=O)N[C@@](C)(Cc2ccccc2F)C(=O)N[C@@H](CO)C(=O)N1)C(=O)N[C@H](Cc1ccccc1)C(=O)N[C@H](C(=O)N[C@@](C)(CC(C)C)C(=O)N[C@@H](CC(C)C)C(=O)N[C@@H](CC(=O)O)C(=O)N[C@H]1CCC(=O)NCCCC[C@@H](C(=O)N[C@@H](CC(=O)O)C(=O)N[C@@H](Cc2ccccc2)C(=O)N[C@H](C(=O)N[C@H]2CCC(=O)NCCCC[C@@H](C(=O)N[C@H]3CCC(=O)NCCCC[C@@H](C(N)=O)NC(=O)[C@H]([C@@H](C)O)NC(=O)[C@H]([C@@H](C)CC)NC(=O)[C@H](CCCCN)NC3=O)NC(=O)[C@H]([C@@H](C)CC)NC(=O)[C@H](CC(C)C)NC(=O)[C@H](Cc3c[nH]c4ccccc34)NC2=O)[C@@H](C)CC)NC(=O)[C@H](C)NC(=O)[C@H](C)NC(=O)[C@H](CCCCN)NC1=O)[C@@H](C)O [Example 71] ({Malonyl(2,2-Me2,histaminyl)}-[Ala(1H-tetrazol-5-yl)]KS[αMePhe(2-F)]SDE[Nle][dF]T[αMeL]LDEKAAKDFIEWLIKEKITK-NH2; lactam 2-6, 14-18, 22-26, 27-31 (inferred); C-terminus assumed)
102 | 0.158 | 92.6 | 10 | 99.7 | 6.31 |  | 40.7 | 24.5 | CCCC[C@H](NC(=O)[C@H](CCC(=O)O)NC(=O)[C@H](CC(=O)O)NC(=O)[C@H](CO)NC(=O)[C@H](Cc1ccccc1)NC(=O)[C@H](CO)NC(=O)CNC(=O)[C@H](CC(=O)O)NC(=O)C(C)(C)NC(=O)[C@@H](N)Cc1c[nH]cn1)C(=O)N[C@H]1CC(=O)NCCCC[C@@H](C(=O)N[C@@H](CC(C)C)C(=O)N[C@@H](CCCCN)C(=O)N[C@@H](C)C(=O)N[C@@H](C)C(=O)N[C@@H](CCCCN)C(=O)N[C@@H](CC(=O)O)C(=O)N[C@@H](Cc2ccccc2)C(=O)N[C@H](C(=O)N[C@@H](CC(N)=O)C(=O)N[C@@H](Cc2c[nH]c3ccccc23)C(=O)N[C@@H](CC(C)C)C(=O)N[C@H](C(=O)N[C@@H](CCC(N)=O)C(=O)N[C@H]2CCCCNC(=O)CC[C@@H](C(N)=O)NC(=O)[C@H]([C@@H](C)O)NC(=O)[C@H]([C@@H](C)CC)NC(=O)[C@H](CCCCN)NC2=O)[C@@H](C)CC)[C@@H](C)CC)NC(=O)[C@H](CC(C)C)NC(=O)[C@H]([C@@H](C)CC)NC(=O)[C@H]([C@@H](C)O)NC1=O [Example 112] (H-H[Aib]DGSFSDE[Nle]DTILKLKAAKDFINWLIQKKITE-NH2; lactam 11-15, 29-33 (inferred); C-terminus assumed)
